Where “and” joins values, the source holds several entries; their conditions need not be identical. Equal values may be shown once. Read-outs that look alike come from different tables or passages of the source.
What was measured:
[1] = system: paclitaxel-induced CIPN in C57/BL/6J mice; assay: Comparison with sulindac, lidocaine and pregabalin in paclitaxel CIPN, mechanical allodynia (PWT, von Frey)
Protocol: CIPN was established by administration of paclitaxel into C57/BL/6J mice. The paclitaxel was administered into all study groups below: • 1. Group 1: paclitaxel plus vehicle (n=8) • 2. […] Group 4: paclitaxel plus 0.7% sulindac (n=8) • 5. Group 5: paclitaxel plus 5% lidocaine cream (n=8) • 6.
Regarding the treatment with lidocaine: 5% lidocaine cream (a positive control) was applied once to both hind paws of the mice 30 minutes before measurement of PWT.
To determine the outcome of treatment, assessment of mechanical allodynia was performed. […] Mechanical and cold allodynia are determined at least one day apart in the same animal.
Briefly, for mechanical allodynia, pain threshold responses were measured using the well-established method of von Frey filaments in line with that performed in the earlier Examples. The PWT test was performed on day-8 (before the first dose of paclitaxel), the day of starting treatment (day 0, at which CIPN was fully established) and day 14 (treatment continued until day 15). The mechanical threshold, expressed as g, indicates the force of the von Frey filament to which the animal reacted.

[2] = system: paclitaxel-induced CIPN in C57/BL mice; assay: Prevention of neuropathic pain in paclitaxel mouse model of CIPN, paw withdrawal threshold (von Frey); type: in vivo; conditions: day 6 after first paclitaxel (10 mg/kg ip daily x5); PS 8% hydrogel topically to both hind paws 3 times a day for 7 days, started 2 days before paclitaxel
Protocol: In order to establish CIPN, paclitaxel is administered at 10 mg/kg intraperitoneally into C57/BL mice. […] This dosing regimen of paclitaxel produces pain associated with CIPN with time courses that are similar to those of pain after paclitaxel administration in cancer patients.
The first doses were administered 2 days prior to the first administration of paclitaxel.
In particular, a simplified up-down method for estimating paw withdrawal threshold (PWT) using von Frey filaments was used (as described in Bonin et al., Molecular Pain (2014); 10(26):1-10)). The results of the PWT test are expressed as force applied (gm).

[3] = system: paclitaxel-induced CIPN in C57BL/6J mice; assay: Prevention of paclitaxel-induced CIPN pain, mechanical allodynia (von Frey test); conditions: for mechanical allodynia score, mean±SEM: day 10, PS 8% ointment to hind paws started 2 days before first paclitaxel (8 mg/kg ip every other day x4)
Protocol: In the prevention study depicted in FIG. 8, three of the four study groups of mice were treated with paclitaxel (one injection every other day for a total of four) while the fourth group received the solvent alone, serving as control.

[4] = system: paclitaxel-induced CIPN in mice; assay: Cold allodynia (acetone test) in paclitaxel-induced CIPN; type: in vivo, mouse
Protocol: For cold allodynia, mice with paclitaxel-induced CIPN were treated with PS 5% or vehicle for 15 days after the induction of CIPN. The acetone test was used. Briefly, acetone was applied onto the plantar surface of each hind paw. The time each mouse spent licking, lifting, and/or shaking the hind paw recorded over 60 seconds was the score for cold allodynia. Measurements were performed on day-8 (before the first paclitaxel injection), the day of starting treatment (day 0) and then on day 15.

[5] = system: paclitaxel-induced CIPN in C57BL/6J mice; assay: Treatment of paclitaxel-induced CIPN, mechanical allodynia (von Frey test)
[6] = PS and metabolites in proximal and distal half of the sciatic nerve of mice with paclitaxel-induced PN; type: in vivo, mouse; conditions: for concentration at 30 min: mean ± SEM
Protocol: In a separate experiment we studied 8 mice with paclitaxel-induced PN treated with PS 8% ointment 3×/d for 2 wks. Mice were euthanized as above 30 minutes after the last dose of PS. From these mice we harvested both sciatic nerves dividing each into proximal and distal halves, and combined the corresponding halves of every two animals for assay of drug levels.

[7] = Pharmacokinetics and biodistribution of topical PS in normal mice; type: in vivo, mouse; conditions: for Cmax: read-out: Cmax, μM mean ± SEM
Protocol: PS 8% ointment was applied topically to each hind paw (50 μl per paw) with gentle rubbing. At 0.5, 1, 3, 5, 12, 18, and 24 h, mice (n=4-5 mice/time point) were euthanized with CO2 inhalation. Blood was drawn immediately after death. Tissues, including paw skin, paw muscle, leg muscle, the sciatic nerve and lumbar DRG bilaterally were dissected quickly, immediately frozen in liquid nitrogen and stored at −80° C. until analyzed.

CIPN model = conditions: Hidaka et al. (2009); cited from earlier work
[8] = system: oxaliplatin-induced CIPN in C57BL/6J mice; assay: Treatment of oxaliplatin-induced CIPN, mechanical allodynia (von Frey test); type: in vivo, mouse
Source text: (§1) Food and water were available ad libitum.
(§2) Results are expressed as mean±SEM. […] Non-compartmental analyses were employed.

[9] = system: vincristine-induced CIPN in C57BL/6J mice; assay: Treatment of vincristine-induced CIPN, mechanical allodynia (von Frey test); type: in vivo, mouse
Source text: as §1, §2

mice = assay: Safety of PS ointment during the CIPN treatment studies; type: in vivo, mouse; conditions: PS ointment thrice daily to hind paws for up to 22 days
Source text: This finding is in keeping with the known safety profile of PS.

[10] = system: paclitaxel-induced CIPN in C57/BL mice; assay: Treatment of established neuropathic pain in paclitaxel mouse model of CIPN, PWT (von Frey); type: in vivo; conditions: day 10, about 30 min after last application; paclitaxel 10 mg/kg ip daily x3; PS 8% hydrogel to both hind paws 3 times a day for 10 days, started 2 days after last paclitaxel
Protocol: The first doses were administered 2 days after the last administration of paclitaxel.
The data is expressed as percent change from the respective baseline value.

COX-2 = molecular target: T1, COX-2 (Homo sapiens, UniProt P35354); conditions: cited from earlier work
T1 sequence (P35354 18-604): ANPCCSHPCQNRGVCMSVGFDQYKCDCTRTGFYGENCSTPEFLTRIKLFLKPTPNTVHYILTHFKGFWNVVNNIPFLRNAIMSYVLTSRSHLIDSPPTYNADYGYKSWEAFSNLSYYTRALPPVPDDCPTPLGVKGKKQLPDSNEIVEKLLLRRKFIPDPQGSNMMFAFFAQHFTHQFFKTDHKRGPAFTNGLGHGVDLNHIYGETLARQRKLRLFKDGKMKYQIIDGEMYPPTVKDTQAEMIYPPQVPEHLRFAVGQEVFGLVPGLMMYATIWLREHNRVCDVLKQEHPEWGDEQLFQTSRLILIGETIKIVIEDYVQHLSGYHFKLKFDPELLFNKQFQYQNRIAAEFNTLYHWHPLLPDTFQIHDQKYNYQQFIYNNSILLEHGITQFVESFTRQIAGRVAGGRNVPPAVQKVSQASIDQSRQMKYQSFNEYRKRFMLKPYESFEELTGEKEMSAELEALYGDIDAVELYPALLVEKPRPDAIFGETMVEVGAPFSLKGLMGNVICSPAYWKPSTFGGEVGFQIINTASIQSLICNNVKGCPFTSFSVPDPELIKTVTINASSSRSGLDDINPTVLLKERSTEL

COX-1 = COX-1 (Homo sapiens, UniProt P23219); conditions: cited from earlier work
Sequence of COX-1 (P23219 24-599): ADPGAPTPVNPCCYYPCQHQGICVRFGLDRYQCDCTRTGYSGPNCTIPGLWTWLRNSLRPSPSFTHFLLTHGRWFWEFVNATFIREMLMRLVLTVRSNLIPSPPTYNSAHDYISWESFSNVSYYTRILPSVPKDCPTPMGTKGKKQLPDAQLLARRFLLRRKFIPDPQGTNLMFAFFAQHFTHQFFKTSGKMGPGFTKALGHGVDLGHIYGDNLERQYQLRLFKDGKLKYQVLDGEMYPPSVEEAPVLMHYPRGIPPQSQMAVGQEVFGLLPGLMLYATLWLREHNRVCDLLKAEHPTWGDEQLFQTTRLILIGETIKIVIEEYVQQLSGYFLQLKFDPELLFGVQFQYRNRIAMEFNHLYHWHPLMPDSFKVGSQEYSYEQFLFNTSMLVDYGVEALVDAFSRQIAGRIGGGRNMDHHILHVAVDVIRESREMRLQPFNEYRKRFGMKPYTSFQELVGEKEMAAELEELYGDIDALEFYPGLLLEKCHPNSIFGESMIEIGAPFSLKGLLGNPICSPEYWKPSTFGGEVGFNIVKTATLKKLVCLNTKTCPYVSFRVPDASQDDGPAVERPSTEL

[11] = mouse, in vivo, Distal half of the sciatic nerve
[12] = mouse, in vivo, Proximal half of the sciatic nerve, μM
[13] = 30 min after last dose, PS 8% ointment 3x/d for 2 wks
[14] = 30 min after last dose, mice with paclitaxel-induced PN, PS 8% ointment 3x/d for 2 wks
[15] = DRG (dorsal root ganglia), normal mice, PS 8% ointment topically 50 μl per hind paw
[16] = SN (sciatic nerve), normal mice, PS 8% ointment topically 50 μl per hind paw
[17] = leg muscle, normal mice, PS 8% ointment topically 50 μl per hind paw
[18] = paw muscle, normal mice, PS 8% ointment topically 50 μl per hind paw
[19] = paw skin, normal mice, PS 8% ointment topically 50 μl per hind paw

CC(=O)O[C@H]1C(=O)[C@@]2(C)[C@H]([C@H](OC(=O)c3ccccc3)[C@]3(O)C[C@H](OC(=O)[C@H](O)[C@@H](NC(=O)c4ccccc4)c4ccccc4)C(C)=C1C3(C)C)[C@]1(OC(C)=O)CO[C@@H]1C[C@@H]2O [Paclitaxel, paclitaxel, reference compound]
mechanical allodynia score, mean±SEM ([1]; day 0, CIPN fully established after paclitaxel (1.83±0.14 g before paclitaxel)): 0.55 ± 0.05 g
PWT, gm Mean ± SEM [2]: 0.3 ± 0.01 gm
mechanical allodynia score lower than solvent control ([3]; day 10, paclitaxel group vs control): 53%
mechanical allodynia score, mean±SEM [3]: 0.7 ± 0.17 g
cold allodynia score (acetone test), Mean±SEM ([4]; after paclitaxel treatment (4.5±0.24 sec before)): 7.1 ± 0.4 s
reduction of mechanical allodynia scores by the chemotherapeutic ([5]; paclitaxel administered over 12 days, vs baseline): ~85%

CSc1ccc(/C=C2/C(C)=C(CC(=O)O)c3cc(F)ccc32)cc1 [Sulindac sulfide, sulindac sulfide]
Fold difference (distal vs proximal half of sciatic nerve) ([6]; mouse, in vivo, 30 min): 4.5-8.5
concentration at 30 min [6, 11]: 3.5 ± 1 µM
concentration at 30 min [6, 12]: 0 µM

CC1=C(CC(=O)O)c2cc(F)ccc2/C1=C\c1ccc(S(C)(=O)=O)cc1 [Sulindac sulfone, sulindac sulfone]
Distal half of the sciatic nerve, mean ± SEM ([6]; mouse, in vivo): 0.9 ± 0.2 µM
Proximal half of the sciatic nerve, μM, mean ± SEM ([6]; mouse, in vivo): 0.2 ± 0.08 µM

CC1=C(CC(=O)O)c2cc(F)ccc2/C1=C\c1ccc([S+](C)[O-])cc1 (stereo not drawn) [Sulindac, sulindac, reference compound]
Fold difference (distal vs proximal half of sciatic nerve) [6, 13]: 8.5
concentration at 30 min [6, 11]: 3.4 ± 1.1 µM
concentration at 30 min [6, 12]: 0.4 ± 0.03 µM
sulindac levels relative to those of PS ([7]; all tissues except the sciatic nerve (higher) and DRG (equal), topical PS 8% ointment): around 25%

CCN(CC)CC(=O)Nc1c(C)cccc1C [lidocaine, reference compound]
PWT, g Mean ± SEM ([1]; 5% lidocaine cream applied once to both hind paws 30 minutes before measurement): 1.48 ± 0.12 g

CC(C(=O)O)c1ccc(CC2CCCC2=O)cc1 (stereo not drawn) [loxoprofen sodium]
reducing pain signalling in CIPN model (CIPN model): ineffective

O=C1[O][Pt]2([NH][C@@H]3CCCC[C@H]3[NH]2)[O]C1=O [oxaliplatin]
reduction of allodynia score by the chemotherapeutic ([8]; at day 0, two study groups respectively): 65% and 56%

CC[C@]1(O)C[C@H]2CN(CCc3c([nH]c4ccccc34)[C@@](C(=O)OC)(c3cc4c(cc3OC)N(C=O)[C@H]3[C@@](O)(C(=O)OC)[C@H](OC(C)=O)[C@]5(CC)C=CCN6CC[C@]43[C@@H]65)C2)C1 [vincristine, reference compound]
mechanical allodynia score, mean±SEM ([9]; day 0, after vincristine, all three groups): 0.7 ± 0.07 g
reduction of mechanical allodynia score by the chemotherapeutic ([9]; day -7 vs day 0, three vincristine groups): 61%-65%

phosphosulindac [PS]
PWT, g Mean ± SEM ([1]; PS 1.2% to both hind paws 3 times a day from day 0, measured day 14): 0.98 ± 0.06 g
PWT, g Mean ± SEM ([1]; PS hydrogel 5% to both hind paws 3 times a day from day 0, measured day 14): 1.24 ± 0.07 g
PWT, gm Mean ± SEM [2]: 0.4 ± 0.01 gm
mechanical allodynia score, mean±SEM ([8]; after PS 8% ointment 3x/day (day 22) vs day -15 baseline): 1.8 ± 0.09 g
Fold difference (distal vs proximal half of sciatic nerve) [6, 13]: 18.5 and 18.9
Distal half of the sciatic nerve, mean ± SEM [6, 14]: 17 ± 5.1 µM
Proximal half of the sciatic nerve, μM, mean ± SEM [6, 14]: 0.9 ± 0.3 µM
topical or systemic side effects ([3]; PS ointment, prevention study): no topical or systemic side effects
mechanical allodynia score, mean±SEM [3]: 1.2 ± 0.15 g
topical or systemic side effects (mice): no topical or systemic side effects
AUC0-24 h [7, 15]: 4.5 µM·h
Tmax [7, 15]: 18 h
Cmax [7, 15]: 0.3 ± 0.1 µM
AUC0-24 h [7, 16]: 12.0 µM·h
T1/2, h [7, 16]: 57.4 h
Tmax [7, 16]: 0.5 h
Cmax [7, 16]: 0.9 ± 0.1 µM
presence in the systemic circulation ([7]; blood after topical PS 8% ointment, limit of quantitation 0.1 μM for PS): no PS was detected
AUC0-24 h [7, 17]: 171.6 µM·h
T1/2, h [7, 17]: 20.6 h
Tmax [7, 17]: 0.5 h
Cmax [7, 17]: 35 ± 3.6 µM
AUC0-24 h [7, 18]: 411.2 µM·h
T1/2, h [7, 18]: 11.4 h
Tmax [7, 18]: 0.5 h
Cmax [7, 18]: 102 ± 4.6 µM
AUC0-24 h, μM · h [7, 19]: 1,609.8 μM · h
T1/2, h [7, 19]: 16.1 h
Tmax [7, 19]: 0.5 h
Cmax [7, 19]: 195 ± 5.3 µM
t1/2 of the skin and the muscles ([7]; range over paw skin, paw muscle, leg muscle, topical PS 8% ointment): 11.4 to 20.6 h
PWT, % baseline Mean ± SEM [10]: 102.55 ± 4.92 % baseline
inhibition of COX-2 expression (COX-2): does not inhibit
cold allodynia score (acetone test), Mean±SEM ([4]; PS 5% for 15 days after induction of CIPN, day 15, vehicle 9.3±0.7): 3.1 ± 0.4 s
mechanical allodynia score, mean±SEM ([5]; day 0 (initiation of topical treatment, CIPN established)): 0.79 ± 0.08 g
mechanical allodynia score, mean±SEM ([5]; day 5, PS 8% ointment to hind paws 3x/day): 1.17 ± 0.07 g
mechanical allodynia score, mean±SEM ([5]; day 16, PS 8% ointment to hind paws 3x/day (paclitaxel only group: no topical treatment)): 2.49 ± 0.18 g
increase of allodynia score compared to day 0 ([9]; PS treatment for 16 days): 114%
mechanical allodynia score, mean±SEM ([9]; day 16, PS 8% ointment to hind paws 3x/day (vincristine alone group: no topical treatment)): 1.5 ± 0.09 g
inhibition of COX-1 expression (COX-1): does not inhibit

Source: patent US12295964B2, “Treating pain associated with chemotherapy-induced peripheral neuropathy” (MEDICON PHARMACEUTICALS, INC., priority 2021, dated 2025)
